For 28 compounds, LC retention time results are on record in the RepoRT retention time repository (doi:10.1007/s00216-021-03828-0).

Holding throughout (details): stereoisomer not certain
The nature of data set [1]: RP, Merck Supelco Ascentis Express C18, 100 × 2.1 mm, 2 µm, 40 °C, 0.2 mL/min, estimated dead time 1.1 min; A: water + 0.1% formic acid, pH 3; B: acetonitrile + 0.1% formic acid, pH 3; gradient (min/%B) 0/5 2/5 17/99.9 20/99.9.
Data set [2] is described as follows: RP, Merck Supelco Ascentis Express C18, 100 × 2.1 mm, 2 µm, 40 °C, 0.25 mL/min, estimated dead time 0.88 min; A: water + 0.1% formic acid, pH 3; B: acetonitrile + 0.1% formic acid, pH 3; gradient (min/%B) 0/5 2/5 17/99.9 20/99.9.
Data set [3] in a line: RP, Merck Supelco Ascentis Express C18, 100 × 2.1 mm, 2 µm, 40 °C, 0.4 mL/min, estimated dead time 0.55 min; A: water + 0.1% formic acid, pH 3; B: acetonitrile + 0.1% formic acid, pH 3; gradient (min/%B) 0/5 2/5 17/99.9 20/99.9.
Data set [4] in a line: RP, Merck Supelco Ascentis Express C18, 100 × 2.1 mm, 2 µm, 39 °C, 0.3 mL/min, estimated dead time 0.73 min; A: water + 0.1% formic acid, pH 3; B: acetonitrile + 0.1% formic acid, pH 3; gradient (min/%B) 0/5 2/5 17/99.9 20/99.9.
The nature of data set [5]: RP, Merck Supelco Ascentis Express C18, 100 × 2.1 mm, 2 µm, 40 °C, 0.2 mL/min, estimated dead time 1.1 min; A: water + 0.1% formic acid, pH 3; B: acetonitrile + 0.1% formic acid, pH 3; gradient (min/%B) 0/5 2/5 17/99.9 20/99.9. The source holds these as a separate data set.

On to `CC(O)c1ccccc1` (stereo not given) [1-PHENYLETHANOL], for which the LC retention time in data set [1] is 8.6 min; in data set [2], 7.9 min; in data set [3], 6.7 min; in data set [4] it was 7.38 min.

As to `O=c1cccc(O)[nH]1` [2,6-DIHYDROXYPYRIDINE], the LC retention time in data set [1] is 1.53 min; in data set [2], 1.19 min; in data set [3] it was 0.73 min; in data set [4] it was 0.947 min.

Turning to `Nc1ccccc1O` [2-AMINOPHENOL], the LC retention time in data set [1] is 1.34 min.

Regarding `O=C(O)c1ccc2ccccc2n1` [2-QUINOLINECARBOXYLATE], the LC retention time in data set [1] is 4.63 min; in data set [2] it was 4.05 min; in data set [3], 2.93 min; in data set [4] it was 3.6 min.

As for `Nc1cc(O)cc(C(=O)O)c1` [3-AMINO-5-HYDROXYBENZOATE], the LC retention time in data set [1] was 1.32 min.

`O=C(O)C(O)COP(=O)(O)O` (stereo not given) [3-PHOSPHOGLYCERATE]: the LC retention time in data set [1] was 1.39 min; in data set [3], 0.663 min.

In the case of `NCCc1cc(O)c(O)cc1O` [6-HYDROXYDOPAMINE], the LC retention time in data set [3] was 0.893 min.

For `O=C(O)C(O)C(O)C(O)C(O)COP(=O)(O)O` (stereo not given) [6-PHOSPHOGLUCONATE], the LC retention time in data set [1] is 1.32 min.

Regarding `Nc1ncnc2c1ncn2C1OC(CO)C2OP(=O)(O)OC21` (stereo not given) [ADENOSINE 2',3'-CYCLIC PHOSPHATE], the LC retention time in data set [1] was 1.34 min; in data set [5] it was 1.32 min.

On to `Nc1ncnc2c1ncn2C1OC(CO)C(O)C1O` (stereo not given) [ADENOSINE], for which the LC retention time was 1.33 min in data set [1] and 1.35 min in data set [5].

Consider `Nc1nc2c(ncn2C2OC3COP(=O)(O)OC3C2O)c(=O)[nH]1` (stereo not given) [CYCLIC GMP], for which the LC retention time in data set [1] is 1.34 min; in data set [5] it was 1.33 min.

`O=C(O)CCCC(=O)O` [GLUTARATE]: the LC retention time in data set [4] is 1.34 min.

For the compound `Oc1ccc(O)cc1` [HYDROQUINONE], the LC retention time in data set [5] was 4.63 min.

As for `O=C(O)C=CC(=O)O` [MALEATE], the LC retention time in data set [3] is 0.693 min.

With `CC1(O)CCOC(=O)C1` (stereo not given) [MEVALOLACTONE], the LC retention time in data set [1] is 1.84 min; in data set [2], 1.46 min; in data set [3] it was 0.903 min.

Consider `NCC(O)c1ccc(O)c(O)c1` (stereo not given) [NORADRENALINE], for which the LC retention time in data set [3] was 1.07 min.

Turning to `O=C(O)CCC(=O)C(=O)O` [OXOGLUTARATE], in data set [5], the LC retention time was 1.41 min.

For the compound `O=C1CCC(C(=O)O)N1` (stereo not given) [OXOPROLINE], the LC retention time in data set [1] was 1.34 min; in data set [5], 1.32 min.

Turning to `NCCc1ccccc1` [PHENETHYLAMINE], the LC retention time in data set [2] was 1.54 min; in data set [3] it was 0.963 min.

As to `O=CCc1ccccc1` [PHENYLACETALDEHYDE], the LC retention time in data set [3] was 1.09 min.

With `O=C(O)C(=O)Cc1ccccc1` [PHENYLPYRUVATE], the LC retention time in data set [4] was 4.98 min.

In the case of `O=C([O-])c1ccccn1` [PICOLINATE], in data set [5], the LC retention time was 1.37 min.

For `Nc1nc2nccnc2c(=O)[nH]1` [PTERIN], the LC retention time in data set [1] and in data set [5] was 1.33 min each time.

Regarding `c1ccc2ncccc2c1` [QUINOLINE], the results for the LC retention time in data set [1], in data set [2] and in data set [3] were 10.2 min, 9 min and 2.49 min, respectively.

For `O=C(O)C=C(CC(=O)O)C(=O)O` [TRANS-ACONITATE], the LC retention time in data set [4] was 0.887 min.

Regarding `NC(Cc1c[nH]c2ccccc12)C(=O)O` (stereo not given) [TRYPTOPHAN], in data set [4], the LC retention time was 2.72 min.

For the compound `NC(Cc1ccc(O)cc1)C(=O)O` (stereo not given) [TYROSINE], the LC retention time in data set [1] is 1.33 min.

Consider `O=C([O-])c1c[nH]c(=O)[nH]c1=O` [URACIL 5-CARBOXYLATE], for which the LC retention time is 1.39 min in data set [1], 1.07 min in data set [2] and 1.36 min in data set [5].
